± gives the uncertainty stated by the source.
Experiments:
[1] = xn = mol fraction of the nth substance listed

CCCCCC + CCCO
viscosity [mPa·s], [1]
Conditions | 298.15 K | 308.15 K
100 kPa, x1 = 0.0603 | 1.619 ± 0.021 | –
100 kPa, x1 = 0.0992 | 1.44 ± 0.019 | –
100 kPa, x1 = 0.2086 | 1.07 ± 0.014 | –
100 kPa, x1 = 0.4056 | 0.6737 ± 0.0086 | –
100 kPa, x1 = 0.5016 | 0.5493 ± 0.007 | –
100 kPa, x1 = 0.5979 | 0.4564 ± 0.0058 | –
100 kPa, x1 = 0.7014 | 0.3861 ± 0.0049 | –
100 kPa, x1 = 0.8029 | 0.3467 ± 0.0044 | –
100 kPa, x1 = 0.9039 | 0.3116 ± 0.004 | –
100 kPa, x1 = 0.9486 | 0.3029 ± 0.0039 | –
100 kPa, x2 = 0.0679 | 0.3219 ± 0.039 | 0.2901 ± 0.035
100 kPa, x2 = 0.1319 | 0.3383 ± 0.041 | 0.3038 ± 0.036
100 kPa, x2 = 0.2357 | 0.3688 ± 0.044 | 0.3515 ± 0.042
100 kPa, x2 = 0.3681 | 0.4378 ± 0.053 | 0.3916 ± 0.047
100 kPa, x2 = 0.4848 | 0.5309 ± 0.064 | 0.4635 ± 0.056
100 kPa, x2 = 0.5884 | 0.6557 ± 0.079 | 0.5724 ± 0.069
100 kPa, x2 = 0.6811 | 0.8015 ± 0.096 | 0.6603 ± 0.079
100 kPa, x2 = 0.7644 | 0.998 ± 0.12 | 0.8293 ± 0.1
100 kPa, x2 = 0.8398 | 1.172 ± 0.14 | 0.9551 ± 0.11
100 kPa, x2 = 0.9083 | 1.427 ± 0.17 | 1.177 ± 0.14
100 kPa, x2 = 0.9708 | 1.762 ± 0.21 | 1.427 ± 0.17
101.33 kPa, x2 = 0.1148 | 0.34 ± 0.005 | –
101.33 kPa, x2 = 0.1407 | 0.345 ± 0.005 | –
101.33 kPa, x2 = 0.2154 | 0.369 ± 0.005 | –
101.33 kPa, x2 = 0.3704 | 0.451 ± 0.006 | –
101.33 kPa, x2 = 0.5278 | 0.603 ± 0.008 | –
101.33 kPa, x2 = 0.6309 | 0.75 ± 0.01 | –
101.33 kPa, x2 = 0.7618 | 1.038 ± 0.013 | –
101.33 kPa, x2 = 0.8626 | 1.349 ± 0.017 | –
101.33 kPa, x2 = 0.9594 | 1.756 ± 0.023 | –

C1CNCCN1.C1CNCCN1.C1CNCCN1.O=C(O)CC(O)(CC(=O)O)C(=O)O.O=C(O)CC(O)(CC(=O)O)C(=O)O + O
viscosity [mPa·s], [1], 101.3 kPa
Conditions | 293.15 K | 303.15 K | 313.15 K
x1 = 0.000319 | 1.035 ± 0.022 | 0.826 ± 0.018 | 0.679 ± 0.015
x1 = 0.000781 | 1.073 ± 0.023 | 0.857 ± 0.018 | 0.708 ± 0.015
x1 = 0.000911 | 1.086 ± 0.023 | 0.865 ± 0.019 | 0.716 ± 0.015
x1 = 0.00105 | 1.101 ± 0.024 | 0.877 ± 0.019 | 0.725 ± 0.016
x1 = 0.00119 | 1.115 ± 0.024 | 0.888 ± 0.019 | 0.733 ± 0.016
x1 = 0.00134 | 1.132 ± 0.024 | 0.901 ± 0.019 | 0.743 ± 0.016
x1 = 0.00149 | 1.148 ± 0.025 | 0.914 ± 0.02 | 0.753 ± 0.016
x1 = 0.00166 | 1.166 ± 0.025 | 0.928 ± 0.02 | 0.763 ± 0.016
x1 = 0.00179 | 1.179 ± 0.025 | 0.939 ± 0.02 | 0.771 ± 0.017
x1 = 0.001875 | 1.188 ± 0.026 | 0.945 ± 0.02 | 0.775 ± 0.017
x1 = 0.002838 | 1.303 ± 0.028 | 1.034 ± 0.022 | 0.834 ± 0.018

CC(C)CO + CC(C)O
viscosity [mPa·s], [1], 101 kPa
Conditions | x2 = 0.2 | x2 = 0.4 | x2 = 0.6 | x2 = 0.8
293.15 K | 3.536 ± 0.035 | 3.163 ± 0.031 | 2.856 ± 0.028 | 2.597 ± 0.026
313.15 K | 1.923 ± 0.021 | 1.742 ± 0.019 | 1.586 ± 0.017 | 1.449 ± 0.016

CCC[N+]1(C)CCCCC1.O=S(=O)([N-]S(=O)(=O)C(F)(F)F)C(F)(F)F
101.3 kPa
Conditions | viscosity [mPa·s]
293.15 K | 199 ± 40
298.15 K | 147 ± 30
303.15 K | 112 ± 22
308.15 K | 86.6 ± 17
313.15 K | 68.5 ± 14
318.15 K | 55.1 ± 11
323.15 K | 45.1 ± 9

Cc1ccccc1O + CC(=O)c1ccccc1
[1], 303.15 K, 101 kPa
Conditions | viscosity [mPa·s]
x2 = 0.11 | 5.369 ± 0.13
x2 = 0.2168 | 4.793 ± 0.11
x2 = 0.3155 | 4.305 ± 0.086
x2 = 0.4164 | 3.832 ± 0.069
x2 = 0.4556 | 3.653 ± 0.064
x2 = 0.5575 | 3.206 ± 0.05
x2 = 0.6919 | 2.635 ± 0.035
x2 = 0.7608 | 2.358 ± 0.029
x2 = 0.9488 | 1.668 ± 0.016

Cc1ccccc1O + C1CCCCC1
[1], 308.15 K, 101 kPa
Conditions | viscosity [mPa·s]
x1 = 0.0821 | 0.8505 ± 0.007
x1 = 0.1618 | 0.9431 ± 0.0077
x1 = 0.2824 | 1.146 ± 0.009
x1 = 0.3677 | 1.341 ± 0.011
x1 = 0.4418 | 1.568 ± 0.012
x1 = 0.5033 | 1.708 ± 0.013
x1 = 0.5871 | 2.049 ± 0.016
x1 = 0.7934 | 3.199 ± 0.024
x1 = 0.8996 | 4.104 ± 0.031

C=CCC[n+]1ccn(CC)c1.[Br-] + O
viscosity [mPa·s], [1], 101.33 kPa
Conditions | x1 = 0.001149 | x1 = 0.001784 | x1 = 0.003604 | x1 = 0.005391 | x1 = 0.007164 | x1 = 0.008843
293.15 K | 1.038 ± 0.032 | 1.055 ± 0.032 | 1.095 ± 0.033 | 1.132 ± 0.035 | 1.168 ± 0.036 | 1.206 ± 0.037
298.15 K | 0.922 ± 0.028 | 0.936 ± 0.029 | 0.971 ± 0.03 | 1.003 ± 0.031 | 1.034 ± 0.032 | 1.067 ± 0.033
303.15 K | 0.825 ± 0.025 | 0.837 ± 0.026 | 0.867 ± 0.027 | 0.895 ± 0.027 | 0.924 ± 0.028 | 0.95 ± 0.029
308.15 K | 0.743 ± 0.023 | 0.754 ± 0.023 | 0.781 ± 0.024 | 0.806 ± 0.025 | 0.831 ± 0.025 | 0.854 ± 0.026
313.15 K | 0.674 ± 0.021 | 0.684 ± 0.021 | 0.708 ± 0.022 | 0.73 ± 0.022 | 0.753 ± 0.023 | 0.772 ± 0.024

CCCCCOC(C)=O + CCCCCC
[1], 303.15 K, 101.3 kPa
Conditions | viscosity [mPa·s]
x1 = 0.1004 | 0.303 ± 0.0024
x1 = 0.2054 | 0.3329 ± 0.0026
x1 = 0.298 | 0.3626 ± 0.0028
x1 = 0.403 | 0.4007 ± 0.003
x1 = 0.5009 | 0.443 ± 0.0032
x1 = 0.6017 | 0.4937 ± 0.0035
x1 = 0.6958 | 0.5456 ± 0.0038
x1 = 0.8016 | 0.6101 ± 0.0041
x1 = 0.8978 | 0.6752 ± 0.0045

CC(=O)OC(C)(C)C
101 kPa
Conditions | viscosity [mPa·s]
298.15 K | 0.683 ± 0.008
308.15 K | 0.596 ± 0.008

Reference: the CheMixHub viscosity set
